Data from ChEMBL document CHEMBL1201862, “PubChem BioAssay data set” (2004).
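96-well plates; 48 h exposure; 5 concentrations. Endpoints by linear interpolation between flanking doses. Not reached: highest tested concentration assigned. GI50 = concentration required for 50% inhibition of growth.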 Active and inactive are the calls of the source. Cut-off read from the data, not from the text of the source: active = GI50 up to about 1.1 µM and inactive = higher.

Tests used:
Experiment in all cases: inhibition of tumour cell growth, NCI panel, 48 h
XF498 = system: XF498
DLD-1 = system: DLD-1
HOP-18 = system: HOP-18
LXFL 529 = system: LXFL 529
SNB-78 = system: SNB-78
DMS-273 = system: DMS-273
M19-MEL = system: M19-MEL
DMS-114 = system: DMS-114
RXF 631 = system: RXF 631

Row | SMILES | GI50 (XF498) | GI50 (DLD-1) | GI50 (HOP-18) | GI50 (LXFL 529) | GI50 (SNB-78) | GI50 (DMS-273) | GI50 (M19-MEL) | GI50 (DMS-114) | GI50 (RXF 631)
1 | CCOC(=O)N1C2C=C(C)C(ON2C(=O)c2ccccc2)C2C(C)C(=O)N21 (configuration not stated) | > 100 µM (inactive) | > 100 µM (inactive) | > 100 µM (inactive) | > 100 µM (inactive) | > 100 µM (inactive) | > 100 µM (inactive) | > 100 µM (inactive) | > 100 µM (inactive) | 
2 | COc1ccc(O)c(C#N)c1C#N | > 100 µM (inactive) |  |  | > 100 µM (inactive) | > 100 µM (inactive) | > 100 µM (inactive) | > 100 µM (inactive) |  | 
3 | CO[C@@]12[C@H](COC(N)=O)C3=C(C(=O)C(C)=C(N)C3=O)N1C[C@H]1[C@@H]2N1C (some centres not stated) [PORFIROMYCIN] | 3.61 µM (inactive) | 9.62 µM (inactive) | 4.75 µM (inactive) |  | 9.68 µM (inactive) | 0.401 µM (active) | 2.74 µM (inactive) |  | 
4 | O=[N+]([O-])c1cc([N+](=O)[O-])c(C(Cl)C(Cl)c2ccccc2)cc1C(Cl)C(Cl)c1ccccc1 (configuration not stated) | 1.87 µM (inactive) | 1.71 µM (inactive) | 1.46 µM (inactive) | 1.54 µM (inactive) | 2.99 µM (inactive) | 2.03 µM (inactive) | 1.83 µM (inactive) | 1.7 µM (inactive) | 2.07 µM (inactive)
5 | O=C(CCn1[nH]c(=O)c(Cl)c(Cl)c1=O)NNC(=O)C[n+]1ccccc1 | > 100 µM (inactive) | > 100 µM (inactive) | > 100 µM (inactive) | > 100 µM (inactive) |  | > 100 µM (inactive) | > 100 µM (inactive) | > 100 µM (inactive) | > 100 µM (inactive)
6 | CC(C)(C)C#C[P+](c1ccccc1)(c1ccccc1)c1ccccc1 |  | 0.191 µM (active) | 0.855 µM (active) | 0.0586 µM (active) | 0.339 µM (active) |  |  |  | 1 µM (active)
7 | CCOC(=O)Cc1nc2ccccc2s1 | 14.8 µM (inactive) | 16.6 µM (inactive) | 24.8 µM (inactive) | 16 µM (inactive) | 18.1 µM (inactive) | 22.6 µM (inactive) | 18.4 µM (inactive) |  | 16.8 µM (inactive)
8 | CN(C)CCNC(=O)Cc1ccccc1Nc1c(Cl)cccc1Cl |  | 14.2 µM (inactive) |  | 17.7 µM (inactive) | 17.7 µM (inactive) | 16.7 µM (inactive) | 14.8 µM (inactive) | 17.7 µM (inactive) | 
9 | O=c1[nH]cc(C(F)(C(F)(F)F)C(F)(F)F)c(=O)[nH]1 | > 100 µM (inactive) | > 100 µM (inactive) | > 100 µM (inactive) | > 100 µM (inactive) | > 100 µM (inactive) | > 100 µM (inactive) | > 100 µM (inactive) | > 100 µM (inactive) | > 100 µM (inactive)
10 | O=c1[nH]c(-c2ccccc2)nc2cc(Cl)ccc12 | > 100 µM (inactive) | > 100 µM (inactive) |  | > 100 µM (inactive) | > 100 µM (inactive) | > 100 µM (inactive) | > 100 µM (inactive) | > 100 µM (inactive) | > 100 µM (inactive)
11 | C[C@@H]1C(=O)CC2C(C)(C)CCC[C@]2(C)[C@@]12CC[C@]1(C=COC1)O2 (some centres not stated) |  |  | > 100 µM (inactive) |  | 41.2 µM (inactive) | 34.2 µM (inactive) | 38.1 µM (inactive) | 35.6 µM (inactive) | 
12 | COC(=O)c1c[nH]cc1CCc1c[nH]cc1C(=O)OC | > 100 µM (inactive) |  |  | > 100 µM (inactive) | > 100 µM (inactive) | > 100 µM (inactive) | > 100 µM (inactive) |  | 
13 | CC1CC(C)C(C(O)CC2CC(=O)N(c3ccccc3)C(=O)C2)C(O)C1 (configuration not stated) |  | > 100 µM (inactive) | > 100 µM (inactive) | > 100 µM (inactive) | > 100 µM (inactive) | > 100 µM (inactive) | > 100 µM (inactive) | > 100 µM (inactive) | 
14 | Cn1nc(-c2ccccc2)c(C(=O)/C=C/c2ccc(F)cc2)c(N2CCCCC2)c1=O | 21.1 µM (inactive) | 3.61 µM (inactive) | 5.66 µM (inactive) | 4.68 µM (inactive) |  | 4.03 µM (inactive) | 8.36 µM (inactive) | 3.86 µM (inactive) | 8.61 µM (inactive)
15 | CC(C)c1cc(OCC(O)CO)cc(C(C)C)c1 (configuration not stated) | > 100 µM (inactive) | > 100 µM (inactive) | > 100 µM (inactive) | > 100 µM (inactive) | > 100 µM (inactive) | > 100 µM (inactive) | > 100 µM (inactive) | > 100 µM (inactive) | 
16 | CC(Oc1ccc2cc(C(=O)c3ccccc3)c(=O)oc2c1)C(=O)O (configuration not stated) | > 100 µM (inactive) |  | > 100 µM (inactive) | > 100 µM (inactive) | > 100 µM (inactive) |  | > 100 µM (inactive) | > 100 µM (inactive) | > 100 µM (inactive)
17 | CC1=C(C(=O)Nc2ccc([N+](=O)[O-])cc2)C(c2ccc3c(c2)OCO3)C(C(=O)Nc2ccc([N+](=O)[O-])cc2)=C(C)N1 |  | 12 µM (inactive) | 23.3 µM (inactive) | 7.96 µM (inactive) | 68.4 µM (inactive) | 9.77 µM (inactive) | 13.3 µM (inactive) | 8.55 µM (inactive) | 
18 | CCOC(=N)CC(=O)Nc1ccccc1CC | > 100 µM (inactive) | > 100 µM (inactive) | > 100 µM (inactive) | > 100 µM (inactive) | > 100 µM (inactive) | > 100 µM (inactive) | > 100 µM (inactive) |  | > 100 µM (inactive)
19 | NS(=O)(=O)c1cc2c(cc1Cl)NC(C(=O)NNC(=O)c1ccncc1)=NS2(=O)=O | > 100 µM (inactive) | > 100 µM (inactive) | > 100 µM (inactive) | > 100 µM (inactive) |  | > 100 µM (inactive) | > 100 µM (inactive) | > 100 µM (inactive) | 
20 | COc1cc2c(c(OC)c1OC)-c1ccc(SC)c(=O)cc1C(NC=O)CC2 (configuration not stated) | < 0.01 µM (active) | < 0.01 µM (active) | > 45.7 µM (inactive) |  | < 0.01 µM (active) | < 0.01 µM (active) | < 0.01 µM (active) | < 0.01 µM (active) | 
21 | COc1cc(C[C@H]2c3cc(OC)c(OC)cc3CCN2C)c(Oc2cc3c(cc2OC)-c2c(OC)c(OC)cc4c2[C@H](C3)N(C)CC4)cc1OC [THALICARPINE] | 8.97 µM (inactive) | 15.1 µM (inactive) |  | 11 µM (inactive) |  | 10.7 µM (inactive) | 8.87 µM (inactive) | 9.1 µM (inactive) | 5.52 µM (inactive)
22 | COc1ccc2nc3c(c(NCCCN(C)C)c2c1)CCCC3 | 4.15 µM (inactive) | 7.66 µM (inactive) |  | 12.7 µM (inactive) | 7.83 µM (inactive) | 11.8 µM (inactive) | 17.1 µM (inactive) | 13.9 µM (inactive) | 14.9 µM (inactive)
23 | CC(C)NCC(O)COC(=O)c1cccs1 (configuration not stated) | > 100 µM (inactive) | > 100 µM (inactive) |  | > 100 µM (inactive) | > 100 µM (inactive) | > 100 µM (inactive) | > 100 µM (inactive) |  | > 100 µM (inactive)
24 | CN1C(=O)C(=O)N2c3ccc(Cl)cc3C3(c4ccccc4)N=CC12O3 (configuration not stated) | 3.13 µM (inactive) | 2.83 µM (inactive) | 20.4 µM (inactive) | 3 µM (inactive) | 6.7 µM (inactive) | 4.35 µM (inactive) | 3.57 µM (inactive) | 3.21 µM (inactive) | 
25 | O=c1c(O)c(-c2ccccc2)n(O)c2ccc(Cl)cc12 |  | 26.8 µM (inactive) | 47.8 µM (inactive) | 23.8 µM (inactive) | 37.3 µM (inactive) | 20.3 µM (inactive) |  | 23 µM (inactive) | 27.5 µM (inactive)
26 | CC(C(=O)n1nnc2ccccc21)N(c1ccccc1)c1ccccc1 (configuration not stated) |  | > 100 µM (inactive) |  | > 100 µM (inactive) | > 100 µM (inactive) | 91.6 µM (inactive) | > 100 µM (inactive) |  | 
27 | Cc1nnc(N/N=C(/C(=O)C(C#N)c2ccccc2)C(C#N)c2ccccc2)n1N (configuration not stated) |  | 22.6 µM (inactive) | 15.2 µM (inactive) | 3.71 µM (inactive) | > 51.1 µM (inactive) | 17.7 µM (inactive) | 2.74 µM (inactive) | 3.01 µM (inactive) | 
28 | Cc1cc(=O)oc2cc(OCCCOc3ccc4c(C)cc(=O)oc4c3)ccc12 | 31.3 µM (inactive) | > 100 µM (inactive) |  | > 100 µM (inactive) |  | 91.4 µM (inactive) | > 100 µM (inactive) | > 100 µM (inactive) | > 100 µM (inactive)
